Assay results as given in US12466810B2, “N-(5-(6-ethoxypyrazin-2-yl)pyridin-2-yl)-4-(2-(methylsulfonamido)pyrimidin-4-yl) tetrahydro-2H-pyran-4-carboxamide derivatives and related compounds as human CTPS1 inhibitors for the treatment of proliferative diseases” (Step Pharma S.A.S., priority 2019, dated 2025).

Columns and labels:
human CTPS1 = molecular target: T1, human CTPS1 (Homo sapiens, UniProt P17812); experiment: Human CTPS1 enzyme inhibition (ADP-Glo Max assay); assay type: biochemical; conditions: 25° C., read-out: Human CTPS1 Enzyme Inhibition IC50, grouped by potency range
T1 construct: FLAG (GG linker + DYKDDDDK); His8 (GG linker + HHHHHHHH); purchased Proteros biostructures GmbH
T1 sequence (P17812 1-591): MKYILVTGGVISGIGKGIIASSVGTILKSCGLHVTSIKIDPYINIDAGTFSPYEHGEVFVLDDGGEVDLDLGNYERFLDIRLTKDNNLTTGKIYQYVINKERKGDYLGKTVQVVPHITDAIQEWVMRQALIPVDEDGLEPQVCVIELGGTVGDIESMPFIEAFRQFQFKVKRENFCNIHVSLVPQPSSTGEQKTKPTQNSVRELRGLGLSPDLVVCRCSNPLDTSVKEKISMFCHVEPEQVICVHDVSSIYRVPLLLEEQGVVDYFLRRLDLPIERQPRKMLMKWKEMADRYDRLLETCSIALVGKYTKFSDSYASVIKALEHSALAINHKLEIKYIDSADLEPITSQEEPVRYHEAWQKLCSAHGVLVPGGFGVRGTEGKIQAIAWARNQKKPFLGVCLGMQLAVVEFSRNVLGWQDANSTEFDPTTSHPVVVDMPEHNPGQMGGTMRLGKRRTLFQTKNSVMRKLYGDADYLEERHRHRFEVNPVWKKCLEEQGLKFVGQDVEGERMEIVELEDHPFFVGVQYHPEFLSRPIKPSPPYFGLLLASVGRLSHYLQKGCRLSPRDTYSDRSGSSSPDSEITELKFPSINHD
Experimental: The enzyme inhibitory activities of compounds invented against the target of interest were determined using the ADP-Glo™ Max assay (Promega, UK). Assays for human CTPS1 were performed in 1× assay buffer containing 50 mM Tris, 10 mM MgCl2, 0.01% Tween-20, pH to 8.0 accordingly. Finally, immediately before use, L-cysteine was added to the 1× assay buffer to a final concentration of 2 mM. All reagents are from Sigma-Aldrich unless specified otherwise.
Human full length active C-terminal FLAG-Hiss-tag CTPS1 (UniProtKB—P17812, CTPS1[1-591]-[…] (CTPS1[1-591]-SEQ ID NO: 1)) was obtained from Proteros biostructures GmbH.
3× human CTPS1 protein was prepared in 1× assay buffer to the final working protein concentration required for the reaction. A 2 uL volume per well of 3× human CTPS1 protein was mixed with 2 uL per well of 3× test compound (compound prepared in 1× assay buffer to an appropriate final 3× compound concentration respective to the concentration response curve designed for the compounds under test) for 10 minutes at 25° C. The enzymatic reaction was then initiated by addition of a 2 uL per well volume of a pre-mixed substrate mix (UltraPure ATP from ADP-GIo™ Max kit (0.31 mM), GTP (0.034 mM), UTP (0.48 mM) and L-glutamine (0.186 mM)) and the mixture was incubated for an appropriate amount of time within the determined linear phase of the reaction at 25° C. under sealed plate conditions with constant agitation at 500 revolutions per minute (rpm). ADP-GIo™ Max reagent was added for 60 minutes (6 μL per well) and subsequently ADP-GIo™ Max development reagent was added for 60 minutes (12 uL per well) prior to signal detection in a microplate reader (EnVision® Multilabel Reader, Perkin Elmer). Following each reagent addition over the course of the assay, assay plates were pulse centrifuged for 30 seconds at 500 rpm.
In all cases, the enzyme converts ATP to ADP and the ADP-Glo™ Max reagent subsequently depletes any remaining endogenous ATP in the reaction system. The ADP-Glo™ Max detection reagent converts the ADP that has been enzymatically produced back into ATP and using ATP as a substrate together with luciferin for the enzyme luciferase, light is generated which produces a detectable luminescence. […] The percentage inhibition produced by each concentration of compound was calculated using the equation shown below: […]
(§1) Percentage inhibition was then plotted against compound concentration, and the 50% inhibitory concentration (IC50) was determined from the resultant concentration-response curve.

Human CTPS1 Versus CTPS2 = experiment: RapidFire/MS-based enzyme selectivity assay, human CTPS1 versus CTPS2; assay type: biochemical; conditions: RapidFire/MS IC50s
Experimental: Human CTPS1 Versus CTPS2 Selectivity Assessment by RapidFire/MS Analysis.
The enzyme inhibitory activities against each target isoform of interest may be determined for the compounds of the invention using an optimised RapidFire high-throughput mass spectrometry (RF/MS) assay format. RF/MS assays for both human CTPS1 and CTPS2 may be performed in assay buffer consisting of 50 mM HEPES (Merck), 20 mM MgCl2, 5 mM KCl, 1 mM DTT, 0.01% Tween-20, pH to 8.0 accordingly. Human full-length active C-terminal FLAG-His-tag CTPS1 (UniProtKB—P17812, CTPS1[1-591]-[…] (CTPS1[1-591]-SEQ ID NO: 1)) may be obtained from Proteros biostructures GmbH. Human full length active C-terminal FLAG-His-Avi tagged CTPS2 (UniProtKB—Q9NRF8, CTPS2 [1-586]—[…] (CTPS2 [1-586]-SEQ ID NO: 2)) may be obtained from Harker Bio.
Human CTPS (1 or 2) protein may be prepared in 1× assay buffer to the final working protein concentration required for the reaction. A 2 uL volume per well of 2×CTPS (1 or 2) protein may be mixed with 40 nL of compound using acoustic (ECHO) delivery and incubated for 10 minutes at 25° C. Each isoform enzymatic reaction may be subsequently initiated by addition of 2 uL per well of a 2× substrate mix in assay buffer. For hCTPS1: ATP (0.3 mM), UTP (0.2 mM), GTP (0.07 mM) and L-glutamine (0.1 mM). For hCTPS2: ATP (0.1 mM), UTP (0.04 mM), GTP (0.03 mM) and L-glutamine (0.1 mM). Each mixture may be incubated for an appropriate amount of time per isoform within the determined linear phase of the reaction at 25° C. A 60 uL volume of stop solution (1% formic acid with 0.5 uM ^13C9-^15N3-CTP in H2O) may be added and the plate immediately heat-sealed and centrifuged for 10 minutes at 4,000 rpm. Following centrifugation, plates may be loaded onto the Agilent RapidFire microfluidic solid phase extraction system coupled to an API4000 triple quadrupole mass spectrometer (RF/MS) for analysis.
In all cases, the enzyme converts UTP to CTP. Highly specific and sensitive multiple reaction monitoring (MRM) MS methods may be optimised for the detection of the enzymatic reaction product, CTP, and the stable isotope labelled product standard ^13C-^15N-CTP. Readout for data analysis may be calculated as the ratio between the peak area of the product CTP and the internal standard […]. For data reporting, the following equation may be used: […]
For each screening plate, the means of the negative (DMSO) and positive control values were used for the calculation of the respective assay window (S/B) and Z′ values. The median of the respective control values was used for calculation of percent inhibition according to the following equation: […]
as §1
Fold selectivity between CTPS1 and CTPS2 was subsequently calculated according to the following equation: […]

IC50 (human CTPS1) | Fold selectivity between CTPS1 and CTPS2 (CTPS1) (Human CTPS1 Versus CTPS2) | Structure (SMILES)
100 to 1000 nM | +++ (>60 fold (+++)) | CCOc1cncc(-c2ccc(NC(=O)C3(c4ccnc(NS(=O)(=O)C5CCCC5)n4)CCOCC3)nc2)n1 [P245, 4-(2-(cyclopentanesulfonamido)pyrimidin-4-yl)-N-(5-(6-ethoxypyrazin-2-yl)pyridin-2-yl)tetrahydro-2H-pyran-4-carboxamide]
≤ 100 nM | +++ (>60 fold (+++)) | CCOc1cncc(-c2ccc(NC(=O)C3(c4ccnc(NS(=O)(=O)C5CC5)n4)CCN(C(C)=O)CC3)nc2)n1 [P234, 1-Acetyl-4-(2-(cyclopropanesulfonamido)pyrimidin-4-yl)-N-(5-(6-ethoxypyrazin-2-yl)pyridin-2-yl)piperidine-4-carboxamide]
100 to 1000 nM | – | CCOc1cncc(-c2ccc(NC(=O)C3(c4ccnc(NS(=O)(=O)CC5CC5)n4)CCOCC3)nc2)n1 [P263, 4-(2-(cyclopropylmethylsulfonamido)pyrimidin-4-yl)-N-(5-(6-ethoxypyrazin-2-yl)pyridin-2-yl)tetrahydro-2H-pyran-4-carboxamide]
≤ 100 nM | +++ (>60 fold (+++)) | CCOc1cncc(-c2ccc(NC(=O)C3(c4ccnc(NS(C)(=O)=O)n4)CCCCC3)nc2)n1 [P238, N-(5-(6-ethoxypyrazin-2-yl)pyridin-2-yl)-1-(2-(methylsulfonamido)pyrimidin-4-yl)cyclohexane-1-carboxamide]
≤ 100 nM | +++ (>60 fold (+++)) | CCOc1cncc(-c2ccc(NC(=O)C3(c4ccnc(NS(C)(=O)=O)n4)CCOCC3)nc2)n1 [P236, N-(5-(6-ethoxypyrazin-2-yl)pyridin-2-yl)-4-(2-(methylsulfonamido)pyrimidin-4-yl)tetrahydro-2H-pyran-4-carboxamide]
≤ 100 nM | +++ (>60 fold (+++)) | CCOc1cncc(-c2ccc(NC(=O)C3(c4ccnc(NS(=O)(=O)C5CC5)n4)CCN(C(=O)NC(C)C)CC3)nc2)n1 [P233, 4-(2-(Cyclopropanesulfonamido)pyrimidin-4-yl)-N4-(5-(6-ethoxypyrazin-2-yl)pyridin-2-yl)-N1-isopropylpiperidine-1,4-dicarboxamide]
≤ 100 nM | +++ (>60 fold (+++)) | CCOc1cncc(-c2ccc(NC(=O)C3(c4ccnc(NS(=O)(=O)C5CC5)n4)CCCCC3)nc2)n1 [P237, 1-(2-(cyclopropanesulfonamido)pyrimidin-4-yl)-N-(5-(6-ethoxypyrazin-2-yl)pyridin-2-yl)cyclohexane-1-carboxamide]
≤ 100 nM | – | CCOc1cncc(-c2ccc(NC(=O)C3(c4ccnc(NS(=O)(=O)C5CC5)n4)CCS(=O)(=O)CC3)nc2)n1 [P259, 4-(2-(cyclopropanesulfonamido)pyrimidin-4-yl)-N-(5-(6-ethoxypyrazin-2-yl)pyridin-2-yl)tetrahydro-2H-thiopyran-4-carboxamide 1,1-dioxide]

The next lines start with the molecule.

Structure (SMILES) | IC50 (human CTPS1) | Fold selectivity between CTPS1 and CTPS2 (CTPS1) (Human CTPS1 Versus CTPS2)
CCOc1cncc(-c2ccc(NC(=O)C3(c4ccnc(NS(=O)(=O)CC(C)C)n4)CCOCC3)nc2)n1 [P250, N-(5-(6-ethoxypyrazin-2-yl)pyridin-2-yl)-4-(2-((2-methylpropyl)sulfonamido)pyrimidin-4-yl)tetrahydro-2H-pyran-4-carboxamide] | 100 to 1000 nM | +++ (>60 fold (+++))
CCOc1cncc(-c2ccc(NC(=O)C3(c4ccnc(NS(=O)(=O)C(C)(C)C)n4)CCOCC3)nc2)n1 [P246, 4-(2-((1,1-dimethylethyl)sulfonamido)pyrimidin-4-yl)-N-(5-(6-ethoxypyrazin-2-yl)pyridin-2-yl)tetrahydro-2H-pyran-4-carboxamide] | 100 to 1000 nM | +++ (>60 fold (+++))
CCOc1cncc(-c2ccc(NC(=O)C3(c4nccc(NS(=O)(=O)C5CC5)n4)CCN(C)CC3)nc2)n1 [P319, 4-(4-(cyclopropanesulfonamido)pyrimidin-2-yl)-N-(5-(6-ethoxypyrazin-2-yl)pyridin-2-yl)-1-methylpiperidine-4-carboxamide] | ≤ 100 nM | +++ (>60 fold (+++))
CCOc1cncc(-c2ccc(NC(=O)C3(c4ccnc(NS(=O)(=O)CC)n4)CCOCC3)nc2)n1 [P262, N-(5-(6-ethoxypyrazin-2-yl)pyridin-2-yl)-4-(2-(ethylsulfonamido)pyrimidin-4-yl)tetrahydro-2H-pyran-4-carboxamide] | ≤ 100 nM | –
CCOc1cncc(-c2ccc(C(=O)NC3(c4ccnc(NS(=O)(=O)C5CC5)n4)CC3)nc2)n1 [P257, N-(1-(2-(cyclopropanesulfonamido)pyrimidin-4-yl)cyclopropyl)-5-(6-ethoxypyrazin-2-yl)picolinamide] | 100 to 1000 nM | –
CCOc1cncc(-c2ccc(NC(=O)C3(c4ccnc(NS(=O)(=O)C5CC5)n4)CCN(C)CC3)nc2)n1 [P231, 4-(2-(Cyclopropanesulfonamido)pyrimidin-4-yl)-N-(5-(6-ethoxypyrazin-2-yl)pyridin-2-yl)-1-methylpiperidine-4-carboxamide] | 100 to 1000 nM | +++ (>60 fold (+++))
CCOc1cncc(-c2ccc(NC(=O)C3(c4nccc(NS(=O)(=O)C5CC5)n4)CCOCC3)nc2)n1 [P243, 4-(4-(cyclopropanesulfonamido)pyrimidin-2-yl)-N-(5-(6-ethoxypyrazin-2-yl)pyridin-2-yl)tetrahydro-2H-pyran-4-carboxamide] | ≤ 100 nM | +++ (>60 fold (+++))
